Where two headings read alike, the source gives them in different places.
How the values were obtained:
WT Wza = WT Wza (Escherichia coli, UniProt Q9X4B7); test: Single-channel electrical recording, blockers against wt-Wza in planar lipid bilayers; format: binding, E. coli; conditions: for Interaction with WT Wza: 2M KCl, 5 mM HEPES, 100 μM EDTA, 200 μM DTT, pH 7.5
Method: The Wt Wza transporter was tested in single-channel recording, in accordance with the procedures of Naismith (Nature 2006, 444, 226-229) for its ability to form pores in planar lipid bilayers. Sequential insertions of channels in a single orientation were used to measure the conductance of a single channel because more than one channel could insert simultaneously during the first introduction, especially when protein molecules have not properly diffused yet. Repetition of experiments helped to verify conductance of a single channel. […] After collection of 37 insertions of wt Wza channel, the current of a single channel of wt Wza in 2 M KCl buffer was determined to be 1.89±0.01 pA (n=37) on average, corresponding to 18.9±0.1 pS (n=37) in conductance.
(§1) Thirteen commercial cyclodextrins (CDs) were tested for their ability to block WT-Wza and the mutant Y110G/K375C (Table 1) including, neutral, negatively charged or positively charged cyclodextrins. Testing was carried out using electrical channel recording in high salt buffer (2M KCl, 5 mM HEPES, 100 μM EDTA, 200 μM DTT) at pH 7.5.

E. coli strain E69 = test: LPS exposure assay, O9a LPS to O9a LPS-specific antibodies (FACS); format: cell-based; conditions: 1 mM, antiserum incubation 1 h; for LPS exposure by median fluorescence intensity: relative to CWG281 positive control
Method: The direct effect of the inhibition of K30 CPS transport on E. coli strain E69 is the appearance of defects in the capsule layer. This should in turn lead to exposure of O9a LPS at the cell surface. To test this hypothesis, the attachment of rabbit anti-O9a antibodies was quantified by flow cytometry (FACS), by using secondary fluorescent anti-rabbit antibodies. The design of the experiment is depicted schematically in FIG. 4a.
E. coli strains E69 and CWG281 were grown as described above in Example 4 and the OD600 was adjusted to 0.4. The concentrations of cyclodextrin (either am8γCD (compound 13), am6αCD (compound 3) or am7βCD (compound 10)) present in the growth media were 10 nM, 100 nM, 1 μM, 10 μM, 50 μM, 100 μM and 1 mM. 50 μL samples of each were centrifuged at 3,000×g for 10 min to remove the medium, washed with PBS and resuspended in 50 μL PBS. O9a antiserum (0.5 μL) was then added. The mixtures were incubated on ice for 1 h (to compare the effects of am6αCD, am7βCD and am8γCD on the exposure of LPS) or 2 h (for the estimation of minimum effective concentration of am8γCD required to expose LPS to antibodies), followed by centrifugation at 3,000×g for 10 min and washing with PBS. The pellets were resuspended in PBS (50 μL), to which Alexa Fluor 488 Goat Anti-Rabbit IgG secondary antibody (1 μL, Life Technologies, A11034, λex 495 nm, λem 519 nm) was added, followed by incubation for 1 h on ice. The cells were then centrifuged at 3,000×g for 10 min. The pellets were resuspended in PBS (1 mL), followed by analysis by flow cytometry (FACS) using a Becton-Dickinson FACSCalibur. 10,000 cells were analysed for each sample. Fluorescence was measured in the FL1 channel (530 nm).

Wza Y110G/K375C = Wza Y110G/K375C (Escherichia coli, UniProt Q9X4B7, K375C/Y110G); test: Single-channel electrical recording, blockers against mutant Wza Y110G/K375C; format: binding, E. coli; conditions: Y110G/K375C; for Kd: n = 3, 2M KCl buffer pH 7.5
Method: The Wza pore was opened by replacing the tyrosines at position 110 that line the narrowest region of the lumen with glycine. To confirm that the currents observed indeed arose from the mutant pore, a cysteine was introduced in the α-helix barrel (Y110G/K375C) and would therefore yield a characteristic reversible blockade when derivatized with a suitable thiol-specific reagent.
The unitary conductance of the Y110G/K375C pore was determined as for wt-Wza, by measuring stepwise-insertion using the same technique referenced above. The mean open current of Y110G/K375C was determined to be +85±14.1 pA (+50 mV, n=31), corresponding to 1.70±0.28 nS (+50 mV, n=31) in conductance.
as §1

Row | Compound | Interaction with WT Wza (WT Wza) | LPS exposure by percentage of labelled cells (E. coli strain E69) | LPS exposure by median fluorescence intensity (E. coli strain E69) | Interaction with mutant Wza (Wza Y110G/K375C; 2M KCl, 5 mM HEPES, 100 μM EDTA, 200 μM DTT, pH 7.5) | Kd (Wza Y110G/K375C; +3 mV, read-out: Kd, interaction with mutant Wza) | Kd (WT Wza) | Kd (Wza Y110G/K375C; Kd, interaction with mutant Wza, +3 mV) | Kd (Wza Y110G/K375C; Kd, interaction with mutant Wza, +75 mV)
1 | NCC1OC2OC3C(CN)OC(OC4C(CN)OC(OC5C(CN)OC(OC6C(CN)OC(OC7C(CN)OC(OC1C(O)C2O)C(O)C7O)C(O)C6O)C(O)C5O)C(O)C4O)C(O)C3O (stereo not drawn) [No. 3, hexakis (6-amino-6-deoxy)-α-cyclodextrin] | not observed | 36% | 3.2% | – | – | – | – | –
2 | NC[C@H]1O[C@@H]2O[C@H]3[C@H](O)[C@@H](O)[C@@H](O[C@H]4[C@H](O)[C@@H](O)[C@@H](O[C@H]5[C@H](O)[C@@H](O)[C@@H](O[C@H]6[C@H](O)[C@@H](O)[C@@H](O[C@H]7[C@H](O)[C@@H](O)[C@@H](O[C@H]8[C@H](O)[C@@H](O)[C@@H](O[C@H]1[C@H](O)[C@H]2O)O[C@@H]8CN)O[C@@H]7CN)O[C@@H]6CN)O[C@@H]5CN)O[C@@H]4CN)O[C@@H]3CN [No. 4, heptakis (6-amino-6-deoxy)-β-cyclodextrin] | not observed | 9% | 1.8% | not observed^b | 2.9 ± 1.8 mM | – | – | –
3 | NC[C@H]1O[C@@H]2O[C@H]3[C@H](O)[C@@H](O)[C@@H](O[C@H]4[C@H](O)[C@@H](O)[C@@H](O[C@H]5[C@H](O)[C@@H](O)[C@@H](O[C@H]6[C@H](O)[C@@H](O)[C@@H](O[C@H]7[C@H](O)[C@@H](O)[C@@H](O[C@H]8[C@H](O)[C@@H](O)[C@@H](O[C@H]1[C@H](O)[C@H]2O)O[C@@H]8CN)O[C@@H]7CN)O[C@@H]6CN)O[C@@H]5CN)O[C@@H]4CN)O[C@@H]3CN [compound 4] | – | – | – | – | – | 13 mM | 2.9 mM | 2.1 mM

Reference: US9963518B2, “Cyclic oligosaccharides for use in the treatment and prevention of bacterial infection” (priority 2011, dated 2018)
